Columns and labels:
[1] = system: ZEAMX; assay: Post-emergence herbicidal effect and crop plant compatibility, greenhouse pot test; format: in vivo, Zea mays; settings: one-leaf stage, rated visually after about 3 weeks vs untreated controls; for plant injury at 320 g/ha: read-out: Post-emergence effect at 320 g/ha against ZEAMX in %; for plant injury at 80 g/ha: read-out: Post-emergence effect at 80 g/ha against ZEAMX in %
How it was run: (§1)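 Greenhouse pot plants in sandy loam receive a one-leaf-stage spray at 20 to 320 g/ha. Activity is assessed visually around 3 weeks afterwards on a 0–100% scale, where 100% means the plants have died.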

[2] = system: ORYSA; assay: as above; format: in vivo, Oryza sativa; settings: for Post-emergence effect against ORYSA: visual rating about 3 weeks after treatment, crop plant; for Post-emergence effect at 320 g/ha against ORYSA in %: one-leaf stage, rated visually after about 3 weeks vs untreated controls
Source text: • ALOMY: Alopecurus myosuroides SETVI: Setaria viridis • AVEFA: Avena fatua POLCO: Fallopia convolvulus • AMARE: Amaranthus retroflexus ECHCG: Echinochloa crus-galli • LOLRJ: Lolium rigidum STEME: Stellaria media • VERPE: Veronica persica MATIN: Tripleurospermum inodorum • DIGSA: Digitaria sanguinalis ABUTH: Abutylon threophrasti • TRZAS: Triticum aestivum VIOTR: Viola tricolor • BRSNW: Brassica napus ZEAMX: Zea mays • PHBPU: Ipomoea purpurea GLXMA: Glycine max • ORYSA: Oryza sativa HORMU: Hordeum murinum
Seeds of monocotyledonous and dicotyledonous weeds and crop plants are placed in sandy loam in plastic or organic planting pots, covered with soil and cultivated in a greenhouse under controlled growth conditions. 2 to 3 weeks after sowing, the trial plants are treated at the one-leaf stage. The compounds of the invention, formulated in the form of wettable powders (WP) or as emulsion concentrates (EC), are then sprayed onto the green parts of the plants as aqueous suspension or emulsion with addition of 0.5% additive at a water application rate of 600 l/ha (converted). After the test plants have been kept in the greenhouse under optimum growth conditions for about 3 weeks, the activity of the preparations is rated visually in comparison to untreated controls. For example, 100% activity=the plants have died, 0% activity=like control plants.
Tables 20a to 38c below show the effects/crop compatibilities of selected compounds of the general formula (I) on various harmful plants at an application rate corresponding to 20 to 320 g/ha, which were obtained by the trial procedure specified above.

[3] = system: ABUTH; assay: Post-emergence herbicidal effect, greenhouse pot test; format: in vivo, Abutilon theophrasti; settings: visual rating about 3 weeks after treatment
How it was run: as §1

[4] = system: ALOMY; assay: as above; format: in vivo, Alopecurus myosuroides; settings: visual rating about 3 weeks after treatment
How it was run: as §1

[5] = system: AMARE; assay: as above; format: in vivo, Amaranthus retroflexus; settings: visual rating about 3 weeks after treatment
How it was run: as §1

[6] = system: AVEFA; assay: as above; format: in vivo, Avena fatua; settings: 320 g/ha, visual rating about 3 weeks after treatment
How it was run: as §1

[7] = system: DIGSA; assay: as above; format: in vivo, Digitaria sanguinalis; settings: visual rating about 3 weeks after treatment
How it was run: as §1

[8] = system: ECHCG; assay: as above; format: in vivo, Echinochloa crus-galli; settings: for Post-emergence effect against ECHCG: 20 g/ha, visual rating about 3 weeks after treatment
How it was run: as §1

[9] = system: LOLRI; assay: as above; format: in vivo, Lolium rigidum; settings: 320 g/ha
How it was run: as §1

[10] = system: MATIN; assay: as above; format: in vivo, Tripleurospermum inodorum
How it was run: as §1

[11] = system: PHBPU; assay: as above; format: in vivo, Ipomoea purpurea; settings: for pest or weed control at 320 g/ha: Ipomoea purpurea, 504 h, read-out: Post-emergence effect against PHBPU in %
How it was run: as §1

[12] = system: POLCO; assay: as above; format: in vivo, Fallopia convolvulus
How it was run: as §1

[13] = system: SETVI; assay: as above; format: in vivo, Setaria viridis
How it was run: as §1

[14] = system: VERPE; assay: as above; format: in vivo, Veronica persica
How it was run: as §1

[15] = system: VIOTR; assay: as above; format: in vivo, Viola tricolor
How it was run: as §1

[16] = system: TRZAS; assay: Post-emergence herbicidal effect and crop plant compatibility, greenhouse pot test; format: in vivo, Triticum aestivum; settings: 20 g/ha, one-leaf stage, rated visually after about 3 weeks vs untreated controls; for percent crop injury (phytotoxicity) to wheat, post-emergence at 20 g/ha: Triticum aestivum, 504 h, read-out: Post-emergence effect at 20 g/ha against TRZAS in %
How it was run: as §1

| Compound | Post-emergence effect at 20 g/ha against ZEAMX in % ([1]; 20 g/ha) | Post-emergence effect against ORYSA ([2]; 20 g/ha) | Post-emergence effect against ABUTH ([3]; 320 g/ha) | Post-emergence effect against ALOMY ([4]; 320 g/ha) | Post-emergence effect against AMARE ([5]; 320 g/ha) | Post-emergence effect against AVEFA [6] | Post-emergence effect against DIGSA ([7]; 320 g/ha) | Post-emergence effect against ECHCG in % ([8]; 80 g/ha) | Post-emergence effect against ECHCG in % ([8]; 320 g/ha) | Post-emergence effect against MATIN in % ([10]; 320 g/ha) | Post-emergence effect against PHBPU in % ([11]; 320 g/ha) | Post-emergence effect against POLCO in % ([12]; 80 g/ha) | Post-emergence effect against POLCO in % ([12]; 320 g/ha) | Post-emergence effect against SETVI in % ([13]; 320 g/ha) | Post-emergence effect against VERPE in % ([14]; 80 g/ha) | Post-emergence effect against VERPE in % ([14]; 320 g/ha) | Post-emergence effect against VIOTR in % ([15]; 320 g/ha) | Post-emergence effect at 20 g/ha against TRZAS in % [16] | Post-emergence effect at 320 g/ha against ORYSA in % [2] | also measured |
| --- | --- | --- | --- | --- | --- | --- | --- | --- | --- | --- | --- | --- | --- | --- | --- | --- | --- | --- | --- | --- |
| COC(=O)CCOC(=O)C(OC)Oc1nn(-c2ccccc2F)c(-c2ccc(F)nc2)c1Br (single isomer, unassigned) [Example I-13] | 10% | 10% | 80% | 90% | 80% | 80% | 90% | 90% | 90% | 80% | 90% | 80% | 80% | 90% | 80% | 80% | 80% |  |  | Post-emergence effect at 80 g/ha against ZEAMX in % [1]: 20%; Post-emergence effect against ALOMY ([4]; 80 g/ha): 80%; Post-emergence effect against DIGSA ([7]; 80 g/ha): 90%; Post-emergence effect against ECHCG [8]: 80%; Post-emergence effect against LOLRI in % [9]: 80%; Post-emergence effect against MATIN in % ([10]; 80 g/ha): 80%; Post-emergence effect against SETVI in % ([13]; 80 g/ha): 80% |
| COC(=O)C(OC)Oc1nn(-c2cccc(Cl)c2F)c(-c2cncc(F)c2)c1I (centres unmarked) [Example I-19] |  | 0% | 90% | 80% | 80% | 80% | 90% | 80% | 90% | 80% | 90% | 80% | 80% | 80% | 80% | 80% | 80% | 20% | 20% | Post-emergence effect against ORYSA ([2]; 80 g/ha): 0%; Post-emergence effect against ABUTH ([3]; 80 g/ha): 90%; Post-emergence effect against AMARE ([5]; 80 g/ha): 80%; Post-emergence effect against PHBPU in % ([11]; 20 g/ha): 80%; Post-emergence effect against PHBPU in % ([11]; 80 g/ha): 90%; Post-emergence effect against VIOTR in % ([15]; 80 g/ha): 80% |
| COC(=O)C(C)COC(=O)C(OC)Oc1nn(-c2ccccc2F)c(-c2ccc(F)nc2)c1Br (racemic) [Example I-10] | 20% | 10% | 90% | 90% | 100% | 80% | 90% | 90% | 100% | 90% | 90% | 80% | 80% | 90% | 90% | 90% | 90% |  |  | Post-emergence effect against ABUTH ([3]; 20 g/ha): 80%; Post-emergence effect against ABUTH ([3]; 80 g/ha): 90%; Post-emergence effect against AMARE ([5]; 20 g/ha): 80%; Post-emergence effect against AMARE ([5]; 80 g/ha): 80%; Post-emergence effect against ECHCG [8]: 80%; Post-emergence effect against LOLRI in % [9]: 90%; Post-emergence effect against MATIN in % ([10]; 20 g/ha): 80%; Post-emergence effect against MATIN in % ([10]; 80 g/ha): 80%; Post-emergence effect against PHBPU in % ([11]; 80 g/ha): 80%; Post-emergence effect against POLCO in % ([12]; 20 g/ha): 80%; Post-emergence effect against SETVI in % ([13]; 80 g/ha): 80%; Post-emergence effect against VIOTR in % ([15]; 80 g/ha): 80% |
| COC(Oc1nn(-c2ccccc2F)c(-c2ccc(F)nc2)c1Br)C(=O)O (centres unmarked) [Example I-24] | 0% |  |  |  |  |  |  |  |  |  |  |  |  |  |  |  |  | 0% | 10% | Post-emergence effect at 80 g/ha against ZEAMX in % [1]: 10%; plant injury at 320 g/ha ([1]; Zea mays, 504 h): 20% |
| COC(Oc1nn(-c2ccccc2F)c(-c2ccc(F)nc2)c1Br)C(=O)O (centres unmarked) [Example I-12] | 0% |  |  |  |  |  |  |  |  |  |  |  |  |  |  |  |  | 0% | 20% | plant injury at 80 g/ha ([1]; Zea mays, 504 h): 20% |
| COC(=O)C(OC)Oc1nn(-c2ccc(F)nc2)c(-c2ccc(F)nc2)c1Br (centres unmarked) [Example I-15] |  |  |  |  |  |  |  |  |  |  |  |  |  |  |  |  |  |  | 10% | plant injury at 20 g/ha ([1]; Zea mays, 504 h, 20 g/ha, read-out: Post-emergence effect at 20 g/ha against ZEAMX in %): 0%; plant injury at 80 g/ha ([1]; Zea mays, 504 h): 10%; plant injury at 320 g/ha ([1]; Zea mays, 504 h): 20%; percent crop injury (phytotoxicity) to wheat, post-emergence at 20 g/ha [16]: 0%; pest or weed control at 320 g/ha ([11]; 320 g/ha): 80%; pest or weed control at 320 g/ha ([15]; Viola tricolor, 504 h, 320 g/ha, read-out: Post-emergence effect against VIOTR in %): 80% |
| COC(=O)C(OC)Oc1nn(-c2cnccn2)c(-c2ccc(F)nc2)c1Br (centres unmarked) [Example I-36] |  |  |  |  |  |  |  |  |  |  |  |  |  |  |  |  |  |  | 20% | percent crop injury (phytotoxicity) to wheat, post-emergence at 20 g/ha [16]: 20%; pest or weed control at 320 g/ha ([5]; Amaranthus retroflexus, 504 h, 320 g/ha, read-out: Post-emergence effect against AMARE): 80%; pest or weed control at 320 g/ha ([8]; Echinochloa crus-galli, 504 h, 320 g/ha, read-out: Post-emergence effect against ECHCG in %): 90%; pest or weed control at 320 g/ha ([9]; Lolium rigidum, 504 h, read-out: Post-emergence effect against LOLRI in %): 80%; pest or weed control at 320 g/ha ([11]; 320 g/ha): 80%; pest or weed control at 320 g/ha ([12]; Fallopia convolvulus, 504 h, 320 g/ha, read-out: Post-emergence effect against POLCO in %): 80%; pest or weed control at 320 g/ha ([13]; Setaria viridis, 504 h, 320 g/ha, read-out: Post-emergence effect against SETVI in %): 80% |
